# Columns and labels:
# [1] = test system: barnyardgrass; test: Test B pre-/postemergence herbicide test; type: in vivo, Echinochloa crus-galli; conditions: for Barnyardgrass plant response rating: postemergence
# Method in brief: (§1)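 Plants compared with untreated controls 13–15 days post-treatment and given a visual 0–100 injury score. Applications: preemergence to seeds; postemergence at 1- to 4-leaf (2–18 cm); paddy species flooded, 2-leaf stage. Vehicle non-phytotoxic, surfactant included.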
# [2] = test system: Surinam grass; test: Test B pre-/postemergence herbicide test; type: in vivo, Urochloa decumbens; conditions: for Surinam Grass plant response rating: postemergence
# Method in brief: (§2)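 Formulation: non-phytotoxic solvent mix with surfactant. Timing: preemergence on seed and postemergence on 2–18 cm plants, applied concurrently. Readout after 13–15 d greenhouse: visual 0–100 control rating against controls.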
# [3] = test system: cocklebur; test: Test B pre-/postemergence herbicide test; type: in vivo, Xanthium strumarium; conditions: for Cocklebur plant response rating: postemergence
# Method in brief: as §1
# [4] = test system: corn; test: Test B pre-/postemergence herbicide test; type: in vivo, Zea mays; conditions: for Corn plant response rating: postemergence
# Method in brief: as §2
# [5] = test system: large crabgrass; test: Test B pre-/postemergence herbicide test; type: in vivo, Digitaria sanguinalis; conditions: for Crabgrass, Large plant response rating: postemergence
# Method in brief: as §2
# [6] = test system: giant foxtail; test: Test B pre-/postemergence herbicide test; type: in vivo, Setaria faberi; conditions: for Foxtail, Giant plant response rating: postemergence
# Method in brief: as §2
# [7] = test system: lambsquarters; test: Test B pre-/postemergence herbicide test; type: in vivo, Chenopodium album; conditions: for Lambsquarters plant response rating: postemergence
# Method in brief: as §2
# [8] = test system: morningglory; test: Test B pre-/postemergence herbicide test; type: in vivo, Ipomoea coccinea; conditions: for Morningglory plant response rating: postemergence
# Method in brief: as §1
# [9] = test system: pigweed; test: Test B pre-/postemergence herbicide test; type: in vivo, Amaranthus retroflexus; conditions: for Pigweed plant response rating: postemergence
# Method in brief: as §2
# [10] = test system: velvetleaf; test: Test B pre-/postemergence herbicide test; type: in vivo, Abutilon theophrasti; conditions: for Velvetleaf plant response rating: postemergence
# Method in brief: as §2
# [11] = test system: blackgrass; test: Test B postemergence herbicide test; type: in vivo, Alopecurus myosuroides; conditions: postemergence
# Method in brief: (§3)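 Formulated test chemicals went onto postemergence plants measuring 2 to 18 cm, at one to four leaves. For the paddy assay, species had reached two leaves. Scoring took place 13–15 days later by eye, relative to untreated plants, using 0 for no effect up to 100 for full control.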
# [12] = test system: wheat; test: Test B postemergence herbicide test; type: in vivo, Triticum aestivum; set-up: key to Wheat plant response rating: 0 = no effect, 100 = complete control; conditions: postemergence
# Method in brief: (§4)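 After treating 2-leaf paddy plants or 2–18 cm postemergence plants (1 to 4 leaves) with formulated chemical, researchers kept them in a greenhouse for 13–15 days. Effects were judged visually versus controls: 0 indicates none, 100 total control.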
# [13] = test system: wild oat; test: Test B postemergence herbicide test; type: in vivo, Avena fatua; conditions: postemergence
# Method in brief: as §4
# [14] = test system: rice; test: Test B flooded paddy test; type: in vivo, Oryza sativa; conditions: 1000 g ai/ha, scale 0 to 100 (0 no effect, 100 complete control)
# Method in brief: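 Scale 0–100: zero equals no visible effect, 100 complete control, judged by eye relative to controls. Timing: 13 to 15 days in greenhouse post-treatment. Growth stage at spraying: two leaves (paddy) or one to four leaves, 2–18 cm (postemergence).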
# [15] = test system: small flower umbrella sedge; test: Test B flooded paddy test; type: in vivo, Cyperus difformis; conditions: 1000 g ai/ha, scale 0 to 100 (0 no effect, 100 complete control)
# Method in brief: as §3
# [16] = test system: ducksalad; test: Test B flooded paddy test; type: in vivo, Heteranthera limosa; conditions: 1000 g ai/ha, scale 0 to 100 (0 no effect, 100 complete control)
# Method in brief: as §3
# [17] = test system: barnyardgrass; test: Test B flooded paddy test; type: in vivo, Echinochloa crus-galli; conditions: 1000 g ai/ha, scale 0 to 100 (0 no effect, 100 complete control)
# Method in brief: as §3
# [18] = 125 g ai/ha, 0 is no effect, 100 is complete control, preemergence
# [19] = 125 g ai/ha, visual rating, scale 0 (no effect) to 100 (complete control)
# [20] = 500 g ai/ha, visual rating, 0 = no effect, 100 = complete control, preemergence
# [21] = 500 g ai/ha, scale 0 to 100, 0 is no effect, 100 is complete control
compound,measurement,setting,value
CCc1nn(C(C)(C)C)nc1C(=O)Nc1cc(C(=O)N(C)C)ccc1F [Compound 361],"Plant response rating (0 to 100 scale), Barnyardgrass",[1]; [18],80
same,Barnyardgrass plant response rating,[1]; [19],0
same,"Plant response rating, Barnyardgrass",[1]; [20],100
same,Barnyardgrass plant response rating,[1]; [21],10
same,"Plant response rating (0 to 100 scale), Surinam Grass",[2]; [18],50
same,Surinam Grass plant response rating,[2]; [19],10
same,"Plant response rating, Surinam Grass",[2]; [20],90
same,Surinam Grass plant response rating,[2]; [21],10
same,"Plant response rating (0 to 100 scale), Cocklebur",[3]; [18],0
same,Cocklebur plant response rating,[3]; [19],10
same,"Plant response rating, Cocklebur",[3]; [20],50
same,Cocklebur plant response rating,[3]; [21],20
same,"Plant response rating (0 to 100 scale), Corn",[4]; [18],30
same,Corn plant response rating,[4]; [19],0
same,"Plant response rating, Corn",[4]; [20],70
same,Corn plant response rating,[4]; [21],0
same,"Plant response rating (0 to 100 scale), Crabgrass, Large",[5]; [18],80
same,"Crabgrass, Large plant response rating",[5]; [19],10
same,"Plant response rating, Crabgrass, Large",[5]; [20],100
same,"Crabgrass, Large plant response rating",[5]; [21],10
same,"Plant response rating (0 to 100 scale), Foxtail, Giant",[6]; [18],50
same,"Foxtail, Giant plant response rating",[6]; [19],20
same,"Plant response rating, Foxtail, Giant",[6]; [20],100
same,"Foxtail, Giant plant response rating",[6]; [21],30
same,"Plant response rating (0 to 100 scale), Lambsquarters",[7]; [18],80
same,Lambsquarters plant response rating,[7]; [19],70
same,"Plant response rating, Lambsquarters",[7]; [20],100
same,Lambsquarters plant response rating,[7]; [21],70
same,"Plant response rating (0 to 100 scale), Morningglory",[8]; [18],10
same,Morningglory plant response rating,[8]; [19],10
same,"Plant response rating, Morningglory",[8]; [20],60
same,Morningglory plant response rating,[8]; [21],80
same,"Plant response rating (0 to 100 scale), Pigweed",[9]; [18],80
same,Pigweed plant response rating,[9]; [19],20
same,"Plant response rating, Pigweed",[9]; [20],100
same,Pigweed plant response rating,[9]; [21],40
same,"Plant response rating (0 to 100 scale), Velvetleaf",[10]; [18],20
same,Velvetleaf plant response rating,[10]; [19],10
same,Velvetleaf plant response rating,[10]; [21],30
same,Blackgrass plant response rating,[11]; [19],10
same,Blackgrass plant response rating,[11]; [21],40
same,Wheat plant response rating,[12]; [19],0
same,Wheat plant response rating,[12]; [21],0
same,"Oat, Wild plant response rating",[13]; [19],0
same,"Oat, Wild plant response rating",[13]; [21],20
same,Rice plant response rating,[14],90
same,"Sedge, Umbrella plant response rating",[15],90
same,Ducksalad plant response rating,[16],90
same,Barnyardgrass plant response rating,[17],80

# Source: patent publication US20060069132A1, “Azolecarboxamide herbicides” (priority 2004, published 2006)
